These results are taken from the NIST ThermoML archive (doi:10.1021/acs.jced.7b00704).

Molecules are shown by their SMILES. Numbers after ± are expanded uncertainties.

For data set [1] the following is noted: Liquid, Ebulliometric method (Recirculating still).
A short description of data set [2]: refractive index (Na D-line) (dimensionless). The note with it: Liquid, Standard Abbe refractometry.
Data set [3] in a line: refractive index (Na D-line) (dimensionless); xn = mol fraction of the nth substance listed. The note with it: 293.15 K, 93 kPa, Liquid, Standard Abbe refractometry.

`CC(=O)OCCC(C)C` [3-methylbutyl ethanoate]: in data set [1] (412.31 K), the “vapor or sublimation pressure” value is reported as 93.13 ± 0.97 kPa. Moreover, the refractive index in data set [2] (293.15 K, 93 kPa) was 1.4007 ± 0.0005; in data set [2] (298.15 K, 101.33 kPa) it was 1.39842 ± 0.00054.

As for `CC(=O)OC(C)C` [1-methylethyl ethanoate], the “vapor or sublimation pressure” value in data set [1] (358.92 K) came out at 93.13 ± 0.96 kPa. Further, the refractive index was 1.3774 ± 0.0004 in data set [2] (293.15 K, 93 kPa) and 1.3748 ± 0.00042 in data set [2] (298.15 K, 101.33 kPa).

For `CCOC(C)=O` [ethyl acetate], the “vapor or sublimation pressure” value in data set [1] (347.58 K) was 93.13 ± 0.95 kPa. The refractive index in data set [2] (293.15 K, 93 kPa) came out at 1.3724 ± 0.0004; in data set [2] (298.15 K, 101.33 kPa), 1.3698 ± 0.00038.

As to `COC(C)=O` [methyl ethanoate], the “vapor or sublimation pressure” value in data set [1] (327.63 K) is recorded as 93.13 ± 0.96 kPa. The refractive index is given as 1.3615 ± 0.0004 in data set [2] (293.15 K, 93 kPa) and 1.35872 ± 0.00042 in data set [2] (298.15 K, 101.33 kPa).

With `CCCCOC(C)=O` [butyl ethanoate], in data set [1] (396.21 K), the “vapor or sublimation pressure” value came out at 93.13 ± 0.95 kPa. For the same compound, the refractive index in data set [2] (293.15 K, 93 kPa) was 1.3943 ± 0.0004; in data set [2] (298.15 K, 101.33 kPa), 1.39175 ± 0.00038.

As for `CCCOC(C)=O` [propyl ethanoate], the “vapor or sublimation pressure” value in data set [1] (372.05 K) amounted to 93.13 ± 0.97 kPa. Besides, the refractive index is given as 1.3843 ± 0.0005 in data set [2] (293.15 K, 93 kPa) and 1.38181 ± 0.00054 in data set [2] (298.15 K, 101.33 kPa).

Consider `CCCCOC(C)=O` [butyl ethanoate] + COC(=O)OC, for which the refractive index is given as 1.3721 ± 0.0004 in data set [3] (x1 = 0.0941); 1.3728 ± 0.0004 in data set [3] (x1 = 0.1143); 1.3743 ± 0.0004 in data set [3] (x1 = 0.1628); 1.377 ± 0.0004 in data set [3] (x1 = 0.2495); 1.379 ± 0.0004 in data set [3] (x1 = 0.3203); 1.3821 ± 0.0004 in data set [3] (x1 = 0.4375). Moreover, the refractive index in data set [3] (x1 = 0.5357) is on record as 1.3846 ± 0.0004; in data set [3] (x1 = 0.6438), 1.3871 ± 0.0004; in data set [3] (x1 = 0.7325), 1.389 ± 0.0004; in data set [3] (x1 = 0.7418) it was 1.3893 ± 0.0004; in data set [3] (x1 = 0.8819), 1.3921 ± 0.0004; in data set [3] (x1 = 0.9073), 1.3925 ± 0.0004. The refractive index in data set [3] (x1 = 1) is given as 1.3943 ± 0.0004.

Regarding `COC(=O)OC` [dimethyl carbonate], the “vapor or sublimation pressure” value in data set [1] (360.73 K) is 93.13 ± 0.96 kPa. The refractive index in data set [2] (293.15 K, 93 kPa) is 1.3688 ± 0.0004; in data set [2] (298.15 K, 101.33 kPa) it was 1.3664 ± 0.00042.

On to `CCOC(C)=O` [ethyl acetate] + COC(=O)OC, for which the refractive index in data set [3] (x1 = 1) was found to be 1.3724 ± 0.0004.

On to `COC(=O)OC` [dimethyl carbonate] + COC(C)=O, for which the refractive index in data set [3] (x2 = 0) came out at 1.3688 ± 0.0004.

Take `COC(=O)OC` [dimethyl carbonate] + CC(=O)OC(C)C: in data set [3] (x2 = 0), the refractive index was 1.3688 ± 0.0004.

For `COC(=O)OC` [dimethyl carbonate] + CCCCOC(C)=O, the refractive index in data set [3] (x2 = 0) amounted to 1.3688 ± 0.0004.

In the case of `COC(C)=O` [methyl ethanoate] + COC(=O)OC, the refractive index turned out to be 1.3682 ± 0.0004 in data set [3] (x1 = 0.0985); 1.3679 ± 0.0004 in data set [3] (x1 = 0.1427); 1.3673 ± 0.0004 in data set [3] (x1 = 0.2469); 1.3668 ± 0.0004 in data set [3] (x1 = 0.3243); 1.3665 ± 0.0004 in data set [3] (x1 = 0.3794); 1.366 ± 0.0004 in data set [3] (x1 = 0.445). Besides, the refractive index in data set [3] (x1 = 0.5283) is listed as 1.3654 ± 0.0004; in data set [3] (x1 = 0.6548), 1.3645 ± 0.0004; in data set [3] (x1 = 0.7403), 1.3639 ± 0.0004; in data set [3] (x1 = 0.7976), 1.3634 ± 0.0004; in data set [3] (x1 = 0.8939), 1.3625 ± 0.0004; in data set [3] (x1 = 0.9548) it was 1.362 ± 0.0004. In data set [3] (x1 = 1), the refractive index was determined as 1.3615 ± 0.0004.

For the compound `CC(=O)OC(C)C` [1-methylethyl ethanoate] + COC(=O)OC, the refractive index in data set [3] (x1 = 0.0423) was found to be 1.3693 ± 0.0004; in data set [3] (x1 = 0.0899) it was 1.3699 ± 0.0004; in data set [3] (x1 = 0.183), 1.371 ± 0.0004; in data set [3] (x1 = 0.2918) it was 1.3721 ± 0.0004; in data set [3] (x1 = 0.4235), 1.3733 ± 0.0004; in data set [3] (x1 = 0.5026), 1.374 ± 0.0004. The refractive index in data set [3] (x1 = 0.5726) came out at 1.3746 ± 0.0004; in data set [3] (x1 = 0.6814), 1.3754 ± 0.0004; in data set [3] (x1 = 0.7285), 1.3758 ± 0.0004; in data set [3] (x1 = 0.7616), 1.3759 ± 0.0004; in data set [3] (x1 = 0.7915) it was 1.3761 ± 0.0004; in data set [3] (x1 = 0.8849) it was 1.3767 ± 0.0004. Further, the values for the refractive index in data set [3] (x1 = 0.9449) and in data set [3] (x1 = 1) were 1.3771 ± 0.0004 and 1.3774 ± 0.0004, respectively.

As to `COC(=O)OC` [dimethyl carbonate] + CC(=O)OCCC(C)C, the refractive index in data set [3] (x2 = 0) came to 1.3688 ± 0.0004.
